Results from the NIST ThermoML archive (doi:10.1016/j.jct.2006.05.008).
± gives the expanded uncertainty stated by the source.

Test: molar heat capacity at saturation pressure
Conditions: Glass, Small (less than 1 g) adiabatic calorimetry

CCC[n+]1ccn(C)c1.[Br-] [1-methyl-3-propylimidazolium bromide]
molar heat capacity (80.55 K): 98.61 ± 0.59 J/K/mol
molar heat capacity (82.89 K): 100.33 ± 0.6 J/K/mol
molar heat capacity (84.9 K): 101.67 ± 0.61 J/K/mol
molar heat capacity (86.92 K): 103.14 ± 0.62 J/K/mol
molar heat capacity (88.94 K): 104.66 ± 0.62 J/K/mol
molar heat capacity (90.96 K): 106.14 ± 0.63 J/K/mol
molar heat capacity (92.98 K): 107.59 ± 0.63 J/K/mol
molar heat capacity (95 K): 109.05 ± 0.64 J/K/mol
molar heat capacity (97.02 K): 110.46 ± 0.64 J/K/mol
molar heat capacity (99.05 K): 111.82 ± 0.65 J/K/mol
molar heat capacity (101.08 K): 113.17 ± 0.65 J/K/mol
molar heat capacity (103.11 K): 114.53 ± 0.66 J/K/mol
molar heat capacity (105.14 K): 115.8 ± 0.66 J/K/mol
molar heat capacity (107.17 K): 117.19 ± 0.67 J/K/mol
molar heat capacity (109.2 K): 118.42 ± 0.67 J/K/mol
molar heat capacity (111.24 K): 119.73 ± 0.68 J/K/mol
molar heat capacity (113.29 K): 120.92 ± 0.68 J/K/mol
molar heat capacity (115.33 K): 122.2 ± 0.69 J/K/mol
molar heat capacity (117.37 K): 123.41 ± 0.69 J/K/mol
molar heat capacity (119.41 K): 124.68 ± 0.7 J/K/mol
molar heat capacity (121.46 K): 125.82 ± 0.7 J/K/mol
molar heat capacity (123.5 K): 127.01 ± 0.71 J/K/mol
molar heat capacity (125.55 K): 128.16 ± 0.71 J/K/mol
molar heat capacity (127.6 K): 129.31 ± 0.72 J/K/mol
molar heat capacity (129.65 K): 130.51 ± 0.72 J/K/mol
molar heat capacity (131.7 K): 131.69 ± 0.73 J/K/mol
molar heat capacity (133.75 K): 132.94 ± 0.73 J/K/mol
molar heat capacity (135.8 K): 134.11 ± 0.74 J/K/mol
molar heat capacity (137.86 K): 135.27 ± 0.74 J/K/mol
molar heat capacity (139.91 K): 136.51 ± 0.75 J/K/mol
molar heat capacity (141.97 K): 137.66 ± 0.75 J/K/mol
molar heat capacity (144.02 K): 138.89 ± 0.75 J/K/mol
molar heat capacity (146.09 K): 140.08 ± 0.76 J/K/mol
molar heat capacity (148.15 K): 141.29 ± 0.77 J/K/mol
molar heat capacity (150.21 K): 142.47 ± 0.77 J/K/mol
molar heat capacity (152.27 K): 143.7 ± 0.78 J/K/mol
molar heat capacity (154.33 K): 144.86 ± 0.78 J/K/mol
molar heat capacity (156.39 K): 146.04 ± 0.78 J/K/mol
molar heat capacity (158.46 K): 147.24 ± 0.79 J/K/mol
molar heat capacity (160.52 K): 148.42 ± 0.79 J/K/mol
molar heat capacity (162.58 K): 149.59 ± 0.8 J/K/mol
molar heat capacity (164.65 K): 150.76 ± 0.8 J/K/mol
molar heat capacity (166.71 K): 151.98 ± 0.81 J/K/mol
molar heat capacity (168.78 K): 153.15 ± 0.81 J/K/mol
molar heat capacity (170.84 K): 154.38 ± 0.82 J/K/mol
molar heat capacity (172.91 K): 155.61 ± 0.82 J/K/mol
molar heat capacity (174.97 K): 156.8 ± 0.83 J/K/mol
molar heat capacity (177.04 K): 158.04 ± 0.83 J/K/mol
molar heat capacity (179.11 K): 159.26 ± 0.84 J/K/mol
molar heat capacity (181.18 K): 160.5 ± 0.84 J/K/mol
molar heat capacity (183.25 K): 161.87 ± 0.85 J/K/mol
molar heat capacity (185.32 K): 163.21 ± 0.85 J/K/mol
molar heat capacity (187.39 K): 164.56 ± 0.86 J/K/mol
molar heat capacity (189.46 K): 165.92 ± 0.86 J/K/mol
molar heat capacity (191.53 K): 167.36 ± 0.87 J/K/mol
molar heat capacity (193.61 K): 168.95 ± 0.88 J/K/mol
molar heat capacity (195.69 K): 170.66 ± 0.88 J/K/mol
molar heat capacity (197.77 K): 172.38 ± 0.89 J/K/mol
molar heat capacity (199.86 K): 174.39 ± 0.9 J/K/mol
molar heat capacity (201.95 K): 176.91 ± 0.91 J/K/mol
molar heat capacity (202.67 K): 177.34 ± 0.91 J/K/mol
molar heat capacity (204.04 K): 179.87 ± 0.92 J/K/mol
molar heat capacity (205.14 K): 181.79 ± 0.93 J/K/mol
molar heat capacity (206.12 K): 184.42 ± 0.94 J/K/mol
molar heat capacity (207.25 K): 188.13 ± 0.96 J/K/mol
molar heat capacity (208.16 K): 192.2 ± 0.98 J/K/mol
molar heat capacity (209.29 K): 200.7 ± 1 J/K/mol
molar heat capacity (210.11 K): 209.2 ± 1.1 J/K/mol
molar heat capacity (211.19 K): 228.95 ± 1.2 J/K/mol
molar heat capacity (211.92 K): 238.53 ± 1.2 J/K/mol
molar heat capacity (213.01 K): 255.28 ± 1.2 J/K/mol
molar heat capacity (213.79 K): 257.19 ± 1.2 J/K/mol
molar heat capacity (215.01 K): 258.34 ± 1.2 J/K/mol
molar heat capacity (215.82 K): 258.85 ± 1.2 J/K/mol
